Laboratory results published in patent publication US20030064380A1, “Anergy-regulated molecules” (The Center For Blood Research, Inc., priority 2001, published 2003).

System: D5 Th1 T cell line
Assay: nucleic acid expression profile of D5 Th1 T cell line stimulated with 500 nM ionomycin, 1 μM CsA plus ionomycin or 20 nM PMA plus ionomycin; 11K chip, first replicate
Assay type: cell-based, murine
Set-up: expression level of Msa.15983.0_f_at / expression level of Msa.1669.0_f_at / expression level of Msa.18713.0_g_at / expression level of D86609_s_at / expression level of TC19211_at / expression level of TC21156_at / expression level of TC24045_at / expression level of TC30384_g_at / expression level of TC3225_at / expression level of TC38978_at / expression level of TC39080_at / expression level of TC17495_at: unit not given here
Protocol: D5 or primary T cells from NFAT1−/− or wild type DO11.10 transgenic mice were stimulated for 2, 6 or 16 hours with 500 nM ionomycin, 20 nM PMA plus 500 nM ionomycin, or 1 μM CsA plus 500 nM ionomycin. Total RNA was isolated with an RNeasy kit (QIAGEN). Ten μg of total RNA was quantitatively amplified and biotin-labeled as described (Byrne et al., (2000) “Preparation of mRNA for Expression Monitoring” Current Protocols in Molecular Biology (John Wiley & Sons, Inc.) pp. 22.22.21-22.22.13). Hybridization to GeneChips® (Affymetrix) displaying probes for 11,000 mouse genes/ESTs was performed at 40° C. overnight in a mix that included 10 μg fragmented RNA, 6× SSPE, 0.005% Triton X-100 and 100 μg/ml herring sperm DNA in a total volume of 200 μl. Chips were washed, stained with SA-PE and read using an Affymetrix GeneChip® scanner and accompanying gene expression software. Labeled bacterial RNAs of known concentration were spiked into each chip hybridization mix to generate an internal standard curve, allowing normalization between chips and conversion of raw hybridization intensity values to mRNA frequency (mRNA molecules per million).
Nucleic acid expression profiles were obtained from a T cell line at multiple time points and in various T cell states. The D5 Th1 T cell line was stimulated in three different ways: 1) ionomycin alone (e.g., causing the regulatory factor NFAT to move from the cytoplasm to the nucleus); 2) ionomycin+PMA (e.g., causing both NFAT and the transcription factor AP-1 to enter the nucleus); 3) ionomycin +cyclosporin A (CsA) (e.g., preventing NFAT from entering the nucleus in response to ionomycin). […] Cells were stimulated for 0, 2, 6, and 16 hours. RNA was isolated and analyzed on a nucleic acid chip with probes that monitor the expression of 11,000 nucleic acids located at unique addresses. The experiment was done twice (i.e., with two replicates, Rep. 1 and Rep. 2). Nucleic acid expression at the 2, 6 and 16 hour timepoints was compared to nucleic acid expression at 0 hours.
The nucleic acid expression data was stored in a computer database. A database query was used to identify all nucleic acids that were deemed “increasing” or “decreasing” in response to ionomycin (relative to the 0 hour sample) in at least one timepoint in Rep. 1, and the nucleic acids were also deemed “increasing” or “decreasing” in response to ionomycin in Rep. 2.
To test the hypothesis that NFAT in the absence of AP-1 and NFKB induced a genetic program of anergy, genes induced in D5 T cells by ionomycin stimulation alone were evaluated (FIGS. 1, 2 and 6). Samples from D5 cells stimulated with ionomycin plus CsA, which blocks anergy induction, and ionomycin plus PMA, which pharmacologically mimic complete stimulation through the TCR and CD28 were included. RNA was prepared from unstimulated D5 T cells and from cells stimulated for 2, 6 or 16 h under these three conditions, and gene transcription profiles were evaluated using Affymetrix oligonucleotide arrays (FIG. 6A).

Structure (SMILES): C[C@H](CCC(=O)O)C[C@H](C)C[C@H](C)C(=O)/C=C(\O)[C@H](C)C[C@H](C)C/C=C/[C@@H](C)[C@@H](O)[C@@H](C)[C@@H](O)C[C@@H]1CC[C@@](C)([C@H]2CC[C@@](C)([C@@H](C)O)O2)O1 [Ionomycin, ionomycin]
- expression level of D86609_s_at (2 h): 48
- expression level of ET63436_at (2 h): 149
- expression level of MIP1-B_at (2 h): 265.5
- expression level of Msa.11439.0_s_at (2 h): 37
- expression level of Msa.15983.0_f_at (2 h): 40
- expression level of Msa.1669.0_f_at (2 h): 33
- expression level of Msa.18713.0_g_at (2 h): 63
- expression level of Msa.21745.0_s_at (2 h): 9
- expression level of TC3225_at (2 h): 41
- expression level of TC14671_g_at (2 h): 15
- expression level of TC16364_at (2 h): 38
- expression level of TC16828_at (2 h): 13
- expression level of TC17132_at (2 h): 41
- expression level of TC17495_at (2 h): 10
- expression level of TC17558_at (2 h): 28
- expression level of TC18221_at (2 h): 6
- expression level of TC19211_at (2 h): 21
- expression level of TC21156_at (2 h): 34
- expression level of TC23346_s_at (2 h): 8
- expression level of TC23450_s_at (2 h): 20
- expression level of TC24045_at (2 h): 26
- expression level of TC24067_at (2 h): 8
- expression level of TC25965_at (2 h): 19
- expression level of TC27326_g_at (2 h): 40
- expression level of TC29889_at (2 h): 17
- expression level of TC30384_g_at (2 h): 77
- expression level of TC30935_at (2 h): 30
- expression level of TC30992_s_at (2 h): 14
- expression level of TC31681_at (2 h): 52
- expression level of TC33206_at (2 h): 20
- expression level of TC33833_at (2 h): 19
- expression level of TC34186_at (2 h): 19
- expression level of TC36089_at (2 h): 145
- expression level of TC36583_at (2 h): 26
- expression level of TC37631_at (2 h): 38
- expression level of TC38094_at (2 h): 13
- expression level of TC38978_at (2 h): 9
- expression level of TC39012_at (2 h): 47
- expression level of TC39080_at (2 h): 7
- expression level of TC39762_at (2 h): 17
- expression level of TC40487_g_at (2 h): 14
- expression level of TC41014_at (2 h): 9
- expression level of U44731_s_at (2 h): 80
- expression level of X67914_s_at (2 h): 59
- expression level of Z31202_s_at (2 h): 17
- expression level of aa144045_s_at (2 h): 46
- expression level of aa174748_at (2 h): 55
- expression level of c81206_rc_at (2 h): 23
- expression level of k00083_s_at (2 h): 54
- expression level of x12531_s_at (2 h): 81
- expression level of D86609_s_at (6 h): 21
- expression level of ET63436_at (6 h): 82
- expression level of MIP1-B_at (6 h): 102
- expression level of Msa.11439.0_s_at (6 h): 31
- expression level of Msa.15983.0_f_at (6 h): 33
- expression level of Msa.1669.0_f_at (6 h): 38
- expression level of Msa.18713.0_g_at (6 h): 35
- expression level of Msa.21745.0_s_at (6 h): 6
- expression level of TC3225_at (6 h): 44
- expression level of TC14671_g_at (6 h): 19
- expression level of TC16364_at (6 h): 42
- expression level of TC16828_at (6 h): 48
- expression level of TC17132_at (6 h): 54
- expression level of TC17495_at (6 h): 9
- expression level of TC17558_at (6 h): 26
- expression level of TC18221_at (6 h): 8
- expression level of TC19211_at (6 h): 17
- expression level of TC21156_at (6 h): 33
- expression level of TC23346_s_at (6 h): 11
- expression level of TC23450_s_at (6 h): 12
- expression level of TC24045_at (6 h): 21
- expression level of TC24067_at (6 h): 23
- expression level of TC25965_at (6 h): 18
- expression level of TC27326_g_at (6 h): 33
- expression level of TC29889_at (6 h): 15
- expression level of TC30384_g_at (6 h): 73
- expression level of TC30935_at (6 h): 27
- expression level of TC30992_s_at (6 h): 4
- expression level of TC31681_at (6 h): 28
- expression level of TC33206_at (6 h): 8
- expression level of TC33833_at (6 h): 8
- expression level of TC34186_at (6 h): 26
- expression level of TC36089_at (6 h): 122
- expression level of TC36583_at (6 h): 20
- expression level of TC37631_at (6 h): 27
- expression level of TC38094_at (6 h): 7
- expression level of TC38978_at (6 h): 9
- expression level of TC39012_at (6 h): 45
- expression level of TC39080_at (6 h): 14
- expression level of TC39762_at (6 h): 41
- expression level of TC40487_g_at (6 h): 12
- expression level of TC41014_at (6 h): 15
- expression level of U44731_s_at (6 h): 26
- expression level of X67914_s_at (6 h): 62
- expression level of Z31202_s_at (6 h): 30
- expression level of aa144045_s_at (6 h): 39
- expression level of aa174748_at (6 h): 23
- expression level of c81206_rc_at (6 h): 16
- expression level of k00083_s_at (6 h): 32
- expression level of x12531_s_at (6 h): 34
- expression level of D86609_s_at (16 h): 20
- expression level of ET63436_at (16 h): 86
- expression level of MIP1-B_at (16 h): 119
- expression level of Msa.11439.0_s_at (16 h): 34
- expression level of Msa.15983.0_f_at (16 h): 17
- expression level of Msa.1669.0_f_at (16 h): 35
- expression level of Msa.18713.0_g_at (16 h): 28
- expression level of Msa.21745.0_s_at (16 h): 6
- expression level of TC3225_at (16 h): 23
- expression level of TC14671_g_at (16 h): 13
- expression level of TC16364_at (16 h): 34
- expression level of TC16828_at (16 h): 30
- expression level of TC17132_at (16 h): 32
- expression level of TC17495_at (16 h): 12
- expression level of TC17558_at (16 h): 23
- expression level of TC18221_at (16 h): 11
- expression level of TC19211_at (16 h): 12
- expression level of TC21156_at (16 h): 16
- expression level of TC23346_s_at (16 h): 13
- expression level of TC23450_s_at (16 h): 13
- expression level of TC24045_at (16 h): 15
- expression level of TC24067_at (16 h): 15
- expression level of TC25965_at (16 h): 16
- expression level of TC27326_g_at (16 h): 29
- expression level of TC29889_at (16 h): 11
- expression level of TC30384_g_at (16 h): 57
- expression level of TC30935_at (16 h): 22
- expression level of TC30992_s_at (16 h): 6
- expression level of TC31681_at (16 h): 18
- expression level of TC33206_at (16 h): 6
- expression level of TC33833_at (16 h): 6
- expression level of TC34186_at (16 h): 13
- expression level of TC36089_at (16 h): 75
- expression level of TC36583_at (16 h): 18
- expression level of TC37631_at (16 h): 26
- expression level of TC38094_at (16 h): 7
- expression level of TC38978_at (16 h): 12
- expression level of TC39012_at (16 h): 35
- expression level of TC39080_at (16 h): 14
- expression level of TC39762_at (16 h): 31
- expression level of TC40487_g_at (16 h): 8
- expression level of TC41014_at (16 h): 12
- expression level of U44731_s_at (16 h): 17
- expression level of X67914_s_at (16 h): 51
- expression level of Z31202_s_at (16 h): 22
- expression level of aa144045_s_at (16 h): 33
- expression level of aa174748_at (16 h): 22
- expression level of c81206_rc_at (16 h): 15
- expression level of k00083_s_at (16 h): 35
- expression level of x12531_s_at (16 h): 97
